Experimental data from patent publication US11905274B2, “Receptor inhibitors, pharmaceutical compositions comprising the same and use thereof” (BEIJING TIDE PHARMACEUTICAL CO., LTD., priority 2018, dated 2024).
Like-named read-outs stand apart in the source and are kept apart here.

Legend:
AT1 Receptor (AT1R) = AT1 Receptor (AT1R) (Homo sapiens (Human), UniProt P30556); test: Inhibitory activity on AT1 receptor (Tag-lite HTRF, Tb-labeled AT1R cells, angiotensin receptor red agonist); assay type: binding; details: 1 h at room temperature
AT1 Receptor (AT1R), sequence (P30556 whole entry): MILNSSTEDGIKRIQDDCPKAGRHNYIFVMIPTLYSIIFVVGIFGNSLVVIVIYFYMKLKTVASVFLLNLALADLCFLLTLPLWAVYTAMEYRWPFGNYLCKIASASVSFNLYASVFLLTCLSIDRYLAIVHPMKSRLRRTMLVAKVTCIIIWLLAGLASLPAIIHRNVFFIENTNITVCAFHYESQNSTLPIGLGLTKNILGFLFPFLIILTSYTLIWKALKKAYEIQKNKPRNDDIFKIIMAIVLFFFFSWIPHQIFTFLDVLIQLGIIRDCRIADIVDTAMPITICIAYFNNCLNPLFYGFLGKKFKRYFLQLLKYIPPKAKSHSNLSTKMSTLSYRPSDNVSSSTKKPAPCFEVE

AT2 Receptor (AT2R) = AT2 Receptor (AT2R) (Homo sapiens (Human), UniProt P50052); test: Inhibitory activity on AT2 receptor (Tag-lite HTRF, Tb-labeled AT2R cells, angiotensin receptor red agonist); assay type: binding; details: 1 h at room temperature
AT2 Receptor (AT2R), sequence (P50052 whole entry): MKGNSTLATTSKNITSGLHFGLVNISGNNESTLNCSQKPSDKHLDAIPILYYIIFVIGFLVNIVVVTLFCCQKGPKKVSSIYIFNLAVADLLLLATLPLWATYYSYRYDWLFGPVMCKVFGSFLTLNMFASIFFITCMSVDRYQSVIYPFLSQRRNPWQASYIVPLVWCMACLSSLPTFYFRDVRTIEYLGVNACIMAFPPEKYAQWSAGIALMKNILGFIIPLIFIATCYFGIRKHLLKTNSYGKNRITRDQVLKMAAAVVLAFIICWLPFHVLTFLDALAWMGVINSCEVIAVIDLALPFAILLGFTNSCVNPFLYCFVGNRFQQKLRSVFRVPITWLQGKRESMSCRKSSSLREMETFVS

[1] = Pharmacokinetic (PK) test in mice; assay type: in vivo; details: male ICR mice, plasma; for bioavailability / AUC(0-t) / MRT last / half-life / AUC(0-inf) / Cmax: mouse; for bioavailability: PO 20 mg/kg vs IV 3 mg/kg; for AUC(0-inf): read-out: AUCINF_obs; for Cmax: read-out: C0/Cmax
Procedure: To male ICR mice, the solution of Compound C2 (1 mg/mL) of the present invention and the solution of control Compound A (1 mg/mL) were administered intravenously (IV) and intragastrically (PO), in both of which the vehicle system is DMSO, solutol and deionized water (1:2:17, v:v:v). For Compound C2 and Compound A, the IV and PO dosages were 3 mg/kg and 20 mg/kg, respectively. For IV administration, blood was collected from the ophthalmic venous plexus of the mice at (0) horn before the administration and at 0.083, 0.25, 0.5, 1, 2, 4, 6, 8, and 24 horns after the administration, while for PO administration, blood was collected from ophthalmic venous plexus of the mice at (0) hour before the administration and at 0.25, 0.5, 1, 2, 4, 6, 8, and 24 horns after the administration. For Compound C2, a 0.05 mL blood sample was taken at each time point, while for Compound A, a 0.03 mL blood sample was taken at each time point. The collected blood sample was placed in a clean sample tube containing EDTA-K2 (4%), and centrifuged at 5000 rpm at 4° C. for 5 minutes. The resulting plasma was transferred to another clean sample tube, and stored at −20° C. LC-MS/MS analysis was performed on the plasma samples. The pharmacokinetic parameters were calculated using WinNonlin 6.3 software.

SMILES	IC50 (AT1 Receptor (AT1R)) [nM]	IC50 (AT2 Receptor (AT2R)) [nM]	other results
COc1ccccc1N(C(=O)N1CCN(C(=O)N2c3ccccc3CC(=O)c3ccccc32)[C@H](C(=O)O)C1)c1ccccc1OC [Compound C94, (S)-4-(bis(2-methoxylphenyl)carbamoyl)-1-(10-oxo-10,11-dihydro-5H-dibenzo [b,f]azepine-5-carbonyl)piperazine-2-carboxylic acid]	> 10000	–	–
O=C(O)[C@@H]1CN(C(=O)N(c2ccccc2)c2ccccc2)CCN1C(=O)N1c2ccccc2C=Cc2ccccc21 [Compound C2, (S)-1-(5H-dibenzo[b,f]azepine-5-carbonyl)-4-(diphenylcarbamoyl) piperazine-2-carboxylic acid]	> 10000	20.3	CL_obs ([1]; IV, 3 mg/kg): 1.010 mL/min/kg; bioavailability [1]: 45.7%; AUC(0-t) ([1]; IV, 3 mg/kg): 49000 ng·h/mL; MRT last ([1]; IV, 3 mg/kg): 1.9 h; half-life ([1]; IV, 3 mg/kg): 4.51 h; AUC(0-inf) ([1]; IV, 3 mg/kg): 49500 ng·h/mL; Cmax ([1]; IV, 3 mg/kg): 43400 ng/mL; AUC(0-t) ([1]; PO, 20 mg/kg): 151000 ng·h/mL; MRT last ([1]; PO, 20 mg/kg): 2.34 h; half-life ([1]; PO, 20 mg/kg): 3.05 h; AUC(0-inf) ([1]; PO, 20 mg/kg): 151000 ng·h/mL; Cmax ([1]; PO, 20 mg/kg): 62000 ng/mL
O=C(O)[C@@H]1CN(C(=O)N(c2ccccc2)c2ccccc2)CCN1C(=O)N1c2ccccc2Sc2ccccc21 [Compound C20, (S)-4-(diphenylcarbamoyl)-1-(10H-phenothiazine-10-carbonyl)piperazine-2-carboxylic acid]	> 10000	36.7	–
O=C(O)[C@@H]1CN(C(=O)N(c2ccccc2)c2ccccc2)CCN1C(=O)C1(c2ccccc2)CCCCC1 [Compound C80, (S)-4-(diphenylcarbamoyl)-1-(1-phenylcyclohexanecarbonyl) piperazine-2-carboxylic acid]	> 10000	12.7	–
O=C(O)[C@@H]1CN(C(=O)N2c3ccccc3C=Cc3ccccc32)CCN1C(=O)C(c1ccccc1)c1ccccc1 [Compound C5, (S)-4-(5H-dibenzo [b,f]azepine-5-carbonyl)-1-(2,2-diphenylacetyl) piperazine-2-carboxylic acid]	> 10000	6.47	–
O=C(O)[C@@H]1CN(C(=O)N2c3ccccc3Sc3ccccc32)CCN1C(=O)N(c1ccccc1)c1ccccc1 [Compound C44, (S)-1-(diphenylcarbamoyl)-4-(10H-phenothiazine-10-carbonyl)piperazine-2-carboxylic acid]	> 10000	62.6	–
COC1=Cc2ccccc2N(C(=O)N2CCN(C(=O)N(c3ccccc3)c3ccccc3)C[C@H]2C(=O)O)c2ccccc21 [Compound C50, (S)-4-(diphenylcarbamoyl)-1-(10-methoxy-5H-dibenzo[b,f]azepine-5-carbonyl) piperazine-2-carboxylic acid]	> 10000	–	–
O=C(O)[C@H]1CN(C(=O)N2c3ccccc3C=Cc3ccccc32)CCN1C(=O)N(c1ccccc1)c1ccccc1 [Compound C45, (R)-4-(5H-dibenzo[b,f]azepine-5-carbonyl)-1-(diphenylcarbamoyl) piperazine-2-carboxylic acid]	> 10000	55.5	–
O=C(O)[C@@H]1CN(C(=O)C(c2ccccc2)c2ccccc2)CCN1C(=O)C1(c2ccccc2)CCCCC1 [Compound C81, (S)-4-(2,2-diphenylacetyl)-1-(1-phenylcyclohexanecarbonyl) piperazine-2-carboxylic acid]	> 10000	–	–
CN(C)S(=O)(=O)NC(=O)[C@@H]1CN(C(=O)N(c2ccccc2)c2ccccc2)CCN1C(=O)N1c2ccccc2C=Cc2ccccc21 [Compound C33, (S)-4-(5H-dibenzo[b,f]azepine-5-carbonyl)-N^3—(N,N-dimethylsulphamoyl)-N^1,N^1-phenylpiperazine-1,3-dicarboxamide]	> 10000	35.9	–
O=C(O)[C@@H]1CN(C(=O)N2c3ccccc3Sc3ccccc32)CCN1C(=O)C(c1ccccc1)c1ccccc1 [Compound C12, (S)-1-(2,2-diphenylacetyl)-4-(10H-phenothiazine-10-carbonyl) piperazine-2-carboxylic acid]	> 10000	43.7	–
O=C(O)[C@@H]1CN(C(=O)N2c3ccccc3C=Cc3ccccc32)CCN1C(=O)N1c2ccccc2C=Cc2ccccc21 [Compound C3, (S)-1,4-bis(5H-dibenzo[b,f]azepine-5-carbonyl) piperazine-2-carboxylic acid]	> 10000	32.5	–
O=C(O)[C@@H]1CN(C(=O)N2c3ccccc3C=Cc3ccccc32)CCN1C(=O)N(c1ccccc1)c1ccccc1 [Compound C1, (S)-4-(5H-dibenzo[b,f]azepine-5-carbonyl)-1-(diphenylcarbamoyl) piperazine-2-carboxylic acid]	> 10000	18.8	–
O=C1Cc2ccccc2N(C(=O)N2CCN(C(=O)N(c3ccccc3)c3ccccc3)C[C@H]2C(=O)O)c2ccccc21 [Compound C77, (S)-4-(diphenylcarbamoyl)-1-(10-oxo-10,11-dihydro-5H-dibenzo[b,f]azepine-5-carbonyl)piperazine-2-carboxylic acid]	> 10000	32.3	–
O=C(O)[C@@H]1CN(C(=O)N(c2ccccc2)c2ccccc2)CCN1C(=O)N(c1ccccc1)c1ccccc1 [A, reference compound]	–	–	CL_obs ([1]; IV, 3 mg/kg): 41.8933 mL/min/kg; bioavailability [1]: 6.26%; AUC(0-t) ([1]; IV, 3 mg/kg): 1190 ng·h/mL; MRT last ([1]; IV, 3 mg/kg): 0.29 h; half-life ([1]; IV, 3 mg/kg): 0.5 h; AUC(0-inf) ([1]; IV, 3 mg/kg): 1200 ng·h/mL; Cmax ([1]; IV, 3 mg/kg): 7170 ng/mL; AUC(0-t) ([1]; PO, 20 mg/kg): 495 ng·h/mL; MRT last ([1]; PO, 20 mg/kg): 1.06 h; half-life ([1]; PO, 20 mg/kg): 0.872 h; AUC(0-inf) ([1]; PO, 20 mg/kg): 499 ng·h/mL; Cmax ([1]; PO, 20 mg/kg): 366 ng/mL
O=C(O)[C@@H]1CN(C(=O)C(c2ccccc2)c2ccccc2)CCN1C(=O)N1c2ccccc2C=Cc2ccccc21 [Compound C4, (S)-1-(5H-dibenzo [b,f]azepine-5-carbonyl)-4-(2,2-diphenylacetyl) piperazine-2-carboxylic acid]	> 10000	45.1	–
O=C(O)[C@@H]1CN(C(=O)N2c3ccccc3CCc3ccccc32)CCN1C(=O)N1c2ccccc2CCc2ccccc21 [Compound C76, (S)-1,4-bis(10,11-dihydro-5H-dibenzo [b,f]azepine-5-carbonyl)piperazine-2-carboxylic acid]	–	156	–
CCN(Cc1ccsc1)C(=O)N1CCN(C(=O)N2c3ccccc3CC(=O)c3ccccc32)[C@H](C(=O)O)C1 [Compound C79, (S)-4-(ethyl (thiophene-3-ylmethyl)carbamoyl)-1-(10-oxo-10,ll-dihydro-5H-dibenzo[b,f]azepine-5-carbonyl) piperazine-2-carboxylic acid]	–	460	–
O=C(O)[C@H]1CN(C(=O)N(c2ccccc2)c2ccccc2)CCN1C(=O)N1c2ccccc2C=Cc2ccccc21 [Compound C46, (R)-1-(5H-dibenzo [b,f]azepine-5-carbonyl)-4-(diphenylcarbamoyl) piperazine-2-carboxylic acid]	> 10000	54.5	–
CN(Cc1ccccc1)C(=O)N1CCN(C(=O)C(C)(c2ccccc2)c2ccccc2)[C@H](C(=O)O)C1 [Compound C133, (S)-4-(benzyl(methyl)carbamoyl)-1-(2,2-diphenylpropionyl) piperazine-2-carboxylic acid]	–	24.3	–
Cc1ccc(CN(C)C(=O)N2CCN(C(=O)N(c3ccccc3)c3ccccc3)[C@H](C(=O)O)C2)s1 [Compound C135, (S)-1-(diphenylcarbamoyl)-4-(methyl((5-methylthiophen-2-yl)methyl)carbamoyl)piperazine-2-carboxylic acid]	–	28.2	–
